Laboratory results as given in patent US20250127780A1, “IMIDAZO[4,5-B]PYRIDINE AND PYRAZOLO[1,5-A]PYRIMIDINE DERIVATIVES AS SIK MODULATORS FOR THE TREATMENT OF RHEUMATOID ARTHRITIS” (Hoffmann-La Roche Inc., priority 2022, published 2025).

Key:
Assay type in all cases: biochemical
SIK1 = SIK1 (Homo sapiens (Human), UniProt P57059); test: Phosphorylation assay SIK1 (RapidFire mass spectrometry); conditions: 5 nM SIK1, CHK-peptide, ATP, 30 min pre-incubation, 45 min incubation; read-out: SIK1 RF IC50
Method: (§1) In the presence of SIK2 (resp. SIK1 or SIK3) and ATP the CHK-peptide ([…] with C-terminal arginine amide modification) were phosphorylated at one of the four feasible serine's. Only one phosphorylation is observed under the assay conditions. 60 nl of each compound dilution series (12 point; dilution factor 3, generally 30 μM to 170 pM) in DMSO were transferred by acoustic dispensing to the assay plate and 30 minutes pre-incubated (ambient temperature) after the addition of 5 μl SIK1 (5 nM) resp. 5 μl SIK2 (0.5 nM) or 7 μl SIK3 (1.5 nM) in assay-buffer (12.5 mM HEPES (pH 7.0), 10 mM magnesium acetate, 0.005% BSA). 10 μM CHK-peptide solution and 5 μl of 100 μM ATP for SIK1 & SIK2 resp. 3 μl for SIK3 in assay-buffer were added and incubated ambient for 45 minutes. 40 μl of 0.125% formic acid in water were added to quench the reaction. RapidFire (RF) Mass Spectrometry was utilized for data generation as described below. The multiple charged species (3-5 charges) for the phosphorylated and non-phosphorylated form measured by MRM (Multiple Reaction Monitoring; API5000 or 6500+) or EIC (Extracted Ion Current; QToF) were summed up and the ratio calculated (sum phosphorylated species/sum all species) for data evaluation. Normalization was performed by Genedata software based on the non-inhibition control DMSO and the commercially available SIK inhibitor @1 μM YKL-05-099 (CAS number 1936529-65-5). The results of the assay are expressed in half-maximal inhibitory concentrations (IC50s) and are summarized below in Table 1.
(§2) Samples were aspirated by vacuum for max. 600 ms and loaded to C4-cartridge (Agilent; #G9203A) for 3000 ms@1.5 ml/min with 0.1% formic acid in water. Afterwards samples were transferred to the API5000 (API6500+) or QToF mass spectrometer for 4000 ms@1.25 ml/min with 90% acetonitrile; 10% water; 0.007% TFA; 0.093 formic acid. The cartridge was reconditioned for additional 500 ms with 0.1% formic acid in water.
(§3) All MS analyses using the following MS-setup in MRM mode: Electrospray positive; Ion Spray Voltage: 4000V; Temperature: 550° C.; Collision Gas: 5; Curtain Gas: 15; Gas 1: 40; Gas 2: 42; EP: 10. DP=declustering potential; CE=collision energy; CXP=cell exit potential.
(§4) All MS analyses using the following MS-setup in Mode MS: Dual AJS Electrospray positive; VCap: 3000V; Drying & Sheath gas: 340° C.@81/min; Nebulizer: 60 psig; Nozzle Voltage: 2000V; Fragmentor: 130V; Skimmer: 35V; Oct1 RF Vpp: 700V; Ref masses on@5spectra/s

SIK3 = SIK3 (Homo sapiens (Human), UniProt Q9Y2K2); test: Phosphorylation assay SIK3 (RapidFire mass spectrometry); conditions: 1.5 nM SIK3, CHK-peptide, ATP, 30 min pre-incubation, 45 min incubation; read-out: SIK3 RF IC50
Method: as §1, §2, §3, §4

SIK2 = SIK2 (Homo sapiens (Human), UniProt Q9H0K1); test: Phosphorylation assay SIK2 (RapidFire mass spectrometry); conditions: 0.5 nM SIK2, CHK-peptide, ATP, 30 min pre-incubation, 45 min incubation; read-out: SIK2 RF IC50
Method: as §1, §2, §3, §4

SIK1, sequence (P57059 whole entry): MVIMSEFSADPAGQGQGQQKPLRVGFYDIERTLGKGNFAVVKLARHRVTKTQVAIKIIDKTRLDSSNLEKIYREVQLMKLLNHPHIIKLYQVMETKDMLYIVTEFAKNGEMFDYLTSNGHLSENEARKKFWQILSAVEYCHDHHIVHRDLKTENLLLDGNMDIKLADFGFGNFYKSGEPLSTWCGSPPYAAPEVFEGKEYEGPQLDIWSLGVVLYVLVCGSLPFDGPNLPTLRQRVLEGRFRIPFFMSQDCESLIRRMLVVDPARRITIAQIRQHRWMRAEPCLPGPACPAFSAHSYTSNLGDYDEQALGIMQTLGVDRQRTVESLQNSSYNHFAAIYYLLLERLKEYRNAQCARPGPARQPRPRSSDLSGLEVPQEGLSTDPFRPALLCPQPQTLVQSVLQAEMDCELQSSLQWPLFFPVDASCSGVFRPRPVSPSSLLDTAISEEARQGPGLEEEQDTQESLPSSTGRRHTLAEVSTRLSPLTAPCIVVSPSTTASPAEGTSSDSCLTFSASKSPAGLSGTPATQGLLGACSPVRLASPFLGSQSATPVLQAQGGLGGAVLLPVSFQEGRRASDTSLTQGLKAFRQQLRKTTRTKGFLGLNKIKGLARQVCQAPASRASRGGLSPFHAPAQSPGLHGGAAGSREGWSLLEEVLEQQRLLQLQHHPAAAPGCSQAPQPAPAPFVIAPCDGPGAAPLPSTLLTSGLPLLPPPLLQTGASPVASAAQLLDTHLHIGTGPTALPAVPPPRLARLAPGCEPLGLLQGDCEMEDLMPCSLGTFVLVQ
SIK3, sequence (Q9Y2K2 whole entry): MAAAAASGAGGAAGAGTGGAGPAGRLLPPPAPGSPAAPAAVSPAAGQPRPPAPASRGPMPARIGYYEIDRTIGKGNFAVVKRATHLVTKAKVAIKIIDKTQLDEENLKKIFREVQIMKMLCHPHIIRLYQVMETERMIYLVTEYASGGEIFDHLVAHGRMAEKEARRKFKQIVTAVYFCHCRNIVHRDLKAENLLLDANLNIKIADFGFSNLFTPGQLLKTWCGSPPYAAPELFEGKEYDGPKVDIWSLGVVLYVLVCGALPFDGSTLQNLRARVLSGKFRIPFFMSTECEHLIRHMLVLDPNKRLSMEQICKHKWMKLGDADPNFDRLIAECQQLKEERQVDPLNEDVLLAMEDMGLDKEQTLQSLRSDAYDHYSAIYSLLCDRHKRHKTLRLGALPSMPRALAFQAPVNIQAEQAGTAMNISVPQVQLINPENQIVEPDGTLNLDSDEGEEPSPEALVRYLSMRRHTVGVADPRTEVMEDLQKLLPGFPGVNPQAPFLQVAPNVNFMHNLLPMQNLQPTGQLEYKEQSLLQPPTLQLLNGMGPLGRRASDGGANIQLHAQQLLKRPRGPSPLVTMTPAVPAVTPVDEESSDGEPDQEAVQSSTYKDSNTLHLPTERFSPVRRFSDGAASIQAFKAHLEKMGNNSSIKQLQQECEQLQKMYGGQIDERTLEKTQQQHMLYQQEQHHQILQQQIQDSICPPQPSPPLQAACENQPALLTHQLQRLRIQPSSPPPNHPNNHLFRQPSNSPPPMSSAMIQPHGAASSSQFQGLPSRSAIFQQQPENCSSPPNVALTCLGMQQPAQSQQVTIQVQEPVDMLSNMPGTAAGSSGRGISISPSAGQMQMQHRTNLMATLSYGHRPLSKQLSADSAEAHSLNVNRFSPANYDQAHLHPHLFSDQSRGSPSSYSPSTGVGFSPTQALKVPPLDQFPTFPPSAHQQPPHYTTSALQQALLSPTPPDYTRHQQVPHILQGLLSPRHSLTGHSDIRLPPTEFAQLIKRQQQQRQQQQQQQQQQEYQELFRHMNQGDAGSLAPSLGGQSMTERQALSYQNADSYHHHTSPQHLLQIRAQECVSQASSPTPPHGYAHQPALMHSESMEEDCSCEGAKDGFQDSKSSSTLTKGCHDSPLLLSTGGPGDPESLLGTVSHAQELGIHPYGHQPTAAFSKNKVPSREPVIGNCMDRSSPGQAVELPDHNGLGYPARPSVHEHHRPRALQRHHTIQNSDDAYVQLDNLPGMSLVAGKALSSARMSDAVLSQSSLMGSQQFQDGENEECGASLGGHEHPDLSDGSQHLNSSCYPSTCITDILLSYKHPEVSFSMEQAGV
SIK2, sequence (Q9H0K1 whole entry): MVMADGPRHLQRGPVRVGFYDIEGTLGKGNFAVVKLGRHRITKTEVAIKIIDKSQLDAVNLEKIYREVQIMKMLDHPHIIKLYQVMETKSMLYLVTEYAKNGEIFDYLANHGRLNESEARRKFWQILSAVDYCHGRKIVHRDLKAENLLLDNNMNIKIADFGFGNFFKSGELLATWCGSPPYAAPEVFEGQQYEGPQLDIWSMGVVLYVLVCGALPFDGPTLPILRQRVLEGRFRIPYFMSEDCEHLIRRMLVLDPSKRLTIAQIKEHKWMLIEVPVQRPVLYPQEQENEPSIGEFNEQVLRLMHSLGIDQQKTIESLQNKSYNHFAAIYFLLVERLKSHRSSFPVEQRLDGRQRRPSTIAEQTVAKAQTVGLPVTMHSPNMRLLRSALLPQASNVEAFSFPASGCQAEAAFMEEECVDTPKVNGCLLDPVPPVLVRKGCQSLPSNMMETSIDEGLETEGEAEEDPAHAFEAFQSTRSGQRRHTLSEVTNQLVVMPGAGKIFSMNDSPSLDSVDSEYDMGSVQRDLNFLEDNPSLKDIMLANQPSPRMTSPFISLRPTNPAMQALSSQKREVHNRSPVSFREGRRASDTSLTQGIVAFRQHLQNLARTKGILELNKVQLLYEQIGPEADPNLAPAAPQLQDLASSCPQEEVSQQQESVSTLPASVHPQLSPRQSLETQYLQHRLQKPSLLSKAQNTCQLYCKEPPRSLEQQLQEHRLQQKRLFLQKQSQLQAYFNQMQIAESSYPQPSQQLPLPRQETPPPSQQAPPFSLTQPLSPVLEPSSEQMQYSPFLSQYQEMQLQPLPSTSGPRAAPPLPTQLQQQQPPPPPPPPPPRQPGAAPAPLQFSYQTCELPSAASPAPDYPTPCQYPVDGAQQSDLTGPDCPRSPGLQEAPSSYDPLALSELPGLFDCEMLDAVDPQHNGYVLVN

Row | Compound | IC50 (SIK1) [nM] | IC50 (SIK3) [nM] | IC50 (SIK2) [nM]
1 | Cc1ccc(Nc2cnc3c(-c4ccc(C(C)O)c(-n5nc(C(F)F)cc5C)c4)cnn3c2)nn1 (stereo not drawn) [Example 8, 1-[2-[3-(Difluoromethyl)-5-methyl-pyrazol-1-yl]-4-[6-[(6-methylpyridazin-3-yl)amino]pyrazolo[1,5-a]pyrimidin-3-yl]phenyl]ethanol] | ≥ 30000 | 4 | 52
2 | COc1nc2c(cc1Nc1nnc(C)cc1C(=O)N(C)C)ncn2-c1ccc(C#N)c(-n2nc(OC(F)F)cc2C)c1 [Example 4, 3-[[3-[4-cyano-3-[3-(difluoromethoxy)-5-methyl-pyrazol-1-yl]phenyl]-5-methoxy-imidazo[4,5-b]pyridin-6-yl]amino]-N,N,6-trimethyl-pyridazine-4-carboxamide] | 18600 | 207 | 7
3 | Cc1ccc(Nc2cnc3c(c2)ncn3-c2cc(F)c(C(C)O)c(-n3nc(C#N)cc3C)c2)nn1 (stereo not drawn) [Example 7, 1-[3-Fluoro-2-(1-hydroxyethyl)-5-[6-[(6-methylpyridazin-3-yl)amino]imidazo[4,5-b]pyridin-3-yl]phenyl]-5-methyl-pyrazole-3-carbonitrile] | 6010 | 6 | 21
4 | Cc1ccc(Nc2cnc3c(c2)ncn3-c2ccc(C(C)O)c(-n3nc(C#N)cc3C)c2)nn1 (stereo not drawn) [Example 1, 1-[2-(1-Hydroxyethyl)-5-[6-[(6-methylpyridazin-3-yl)amino]imidazo[4,5-b]pyridin-3-yl]phenyl]-5-methyl-pyrazole-3-carbonitrile] | 2800 | 2 | 16
5 | Cc1cc(C(=O)N(C)C)c(Nc2cnc3c(c2)ncn3-c2ccc(C#N)c(-n3nc(OC(F)F)cc3C)c2)nn1 [Example 6, 3-[[3-[4-Cyano-3-[3-(difluoromethoxy)-5-methyl-pyrazol-1-yl]phenyl]imidazo[4,5-b]pyridin-6-yl]amino]-N,N,6-trimethyl-pyridazine-4-carboxamide] | ≥ 30000 | 366 | 152
6 | Cc1ccc(Nc2cnc3c(-c4ccc(C(C)O)c(-n5nc(C#N)cc5C)c4)cnn3c2)nn1 (stereo not drawn) [Example 2, 1-[2-(1-Hydroxyethyl)-5-[6-[(6-methylpyridazin-3-yl)amino]pyrazolo[1,5-a]pyrimidin-3-yl]phenyl]-5-methyl-pyrazole-3-carbonitrile] | 616 | 0.3 | 1
7 | Cc1cc(C(F)F)nn1-c1cc(-n2cnc3cc(Nc4cccnn4)cnc32)ccc1C(C)O (stereo not drawn) [Example 3, 1-[2-[3-(Difluoromethyl)-5-methyl-pyrazol-1-yl]-4-[6-(pyridazin-3-ylamino)imidazo[4,5-b]pyridin-3-yl]phenyl]ethanol] | 16600 | 27 | 207
8 | Cc1ccc(Oc2cnc3c(-c4ccc(C(C)O)c(-n5nc(C#N)cc5C)c4)cnn3c2)nn1 (stereo not drawn) [Example 5, 1-[2-(1-Hydroxyethyl)-5-[6-(6-methylpyridazin-3-yl)oxypyrazolo[1,5-a]pyrimidin-3-yl]phenyl]-5-methylpyrazole-3-carbonitrile] | 14600 | 12 | 106
